Measurements taken from patent US20050009772A1, “Methods and compositions for the treatment of glaucoma and other retinal diseases” (The Regents of the University of California, priority 2003, published 2005).
“Also recorded” adds a separate entry of the source.

How the values were obtained:
[1] = test system: retinal ganglion cells; experiment: 2DG administration in the animal model of glaucoma; assay type: in vivo; conditions: animal model of glaucoma employed herein
Procedure: Lan et al., NeuroReport 14:2369-72 (2003). In the hands of the, present inventors, however, 2DG administration was ineffective in protecting retinal ganglion cells in the animal model of glaucoma employed herein. Thus, confirmation of efficacy in a relevant animal model is required before any actual conclusions can be drawn.
Rats were anesthetized with intramuscular injections of 0.8 ml/kg of the anesthetic cocktail described above. A previously published procedure was modified to produce chronic moderately elevated IOP unilaterally, while the untreated contralateral eye served as the comparative control.40 Animals were injected intracamerally with 10 μl of 35% India ink (Becton Dickinson, Cockeysville, Md.) in 0.01 M PBS after removing a similar volume of aqueous. At the end of the procedure, Tobrex ophthalmic ointment (tobramycin 0.3%; Alcon, Fort Worth, Tex.) was applied topically. Five days after intracameral injection of India ink, a dark band at the limbus was noted due to the aggregation of carbon particles in the trabecular meshwork.38 After anesthesia, approximately 200 laser burns were delivered ab externo to the pigmented trabecular band at laser settings of 200 μm diameter, 200 mW power and 0.2 seconds duration. Three weeks after the first laser treatment, another trabecular laser photocoagulation was performed without further injection of ink.

[2] = test system: HSP72; experiment: Western blot for HSP72 in enriched RGC fraction after systemic administration of GGA (Experiment 1); assay type: in vivo, rat; conditions: GGA 200 mg/kg co-administered with quercetin 4 mg/kg daily i.p., 7 days
Procedure: Experiment 1 was performed to evaluate the expression of HSP72 and HSC70 in RGCs after systemic administration of GGA with Western blot analysis and immunohistochemistry. For Western blotting, twelve rats were equally divided into 6 groups. Three groups of animals were given intraperitoneal injections of GGA 200 mg/kg daily and were euthanized after 1-, 3- or 7 days of administration of GGA. Three control groups were intraperitoneally administered 1) saline-vehicle daily for 7 days; 2) GGA with 4 mg/kg of quercetin (Sigma, St. Louis, Mo.) daily for 7 days; and 3) untreated animals. Enriched RGC fraction was harvested from 2 retinas of each group and used for Western blot analysis. The same experiment for isolation of RGCs and Western blotting was repeated with the other 2 retinas-from each group.
A solution of 80 mg/mL GGA was prepared in saline (Balanced salt solution; Alcon Laboratories, Inc., Fort Worth, Tex.) and emulsified for one hour in an ultrasonic generator (Branson Ultrasonic Corp., Danbury, Conn.) immediately before administration. Intraperitoneal injections of GGA were given at a dose of 200 mg/kg. Saline-vehicle was prepared and administered in the same fashion in vehicle-treated control groups.
A previously described method was modified to partially purify RGCs from other retinal cells in rat retinas.38 Briefly, two dissected rat retinas from each subgroup were washed in 2.5 ml of calcium- and magnesium-free phosphate buffered saline (PBS) at pH 7.4, and incubated in 1.25 ml of PBS containing 0.5 mg/ml trypsin and 0.01% deoxyribonuclease for 15 minutes at 37° C. This was followed by washing the retinas twice in 2.5 ml of minimal essential medium (MEM) containing 10% (vol/vol) fetal bovine serum. The retinas were subsequently washed in 2.5 ml of MEM twice and dissociated in 3 ml of MEM. The cell suspension was then mixed with 1.5 ml of 30% metrizamide (ICN Biomedicals, Inc., Aurora, Ohio) in MEM to a final concentration of 10 metrizamide. This mixture was then overlaid with 5% metrizamide in MEM, and the gradient was centrifuged at 4500 rpm (HB-4; Sorvall Instruments, Newtown, Conn.) for 25 minutes at 4° C. The cells in the 5% to 10% interface were collected. and washed in 25 ml of cold MEM. The washed cells were pelleted by centrifugation at 250×g for 10 minutes (Juan 3000C centrifuge, Winchester, Va.). The cells were then resuspended in 400 μl of MEM buffer, and the protein concentration in the cell suspension was measured with a bicinchoninic acid (BCA) protein assay kit (Pierce, Rockford, Ill.).
Western blot analysis was performed according to the procedure described by Towbin et al.39 Aliquots of 20 μg of protein from enriched RGCs were separated on a 12% SDS-polyacrylamide minigel (Bio-Rad, Hercules, Calif.) and transferred to the membrane (Immunobilon-P; Millipore Corporation, Bedford, Mass.). The membrane was blocked by incubation in 0.1% Tween-20 in 100 mM Tris-buffered saline containing 10% nonfat dried milk for 1 hour. The membranes were incubated with mouse monoclonal antibody against HSP72 (1:1000; StressGen Biotechnologies Corp., Victoria, British Columbia, Canada) or with rat monoclonal antibody against HSC70 (1:1000; StressGen) overnight and then biotinylated rabbit anti-mouse secondary antibody (1:500; Amersham Pharmacia Biotech, Inc., Piscataway, N.J.) or biotinylated goat anti-rat secondary antibody (1:500; Amersham Pharmacia) for 1 hour. This was followed by incubation with streptavidin-conjugated horseradish peroxidase (1:2000; Amersham Pharmacia) for 40 minutes. The immunoreactive bands were detected by chemiluminescence with an enhanced chemiluminescence Western blot reagent (Amersham Pharmacia).

[3] = test system: TUNEL positive cells in the RGCL; experiment: TUNEL analysis of RGCL after 1 week of IOP elevation (Experiment 3); assay type: in vivo, rat; conditions: elevated IOP retinas, 1 week; quercetin = co-administered with GGA
Procedure: Experiment 3 was performed to investigate the inhibition of apoptosis with GGA administration after 1 week of IOP elevation (n=56).
Rats were anesthetized with intramuscular injections of 0.8 ml/kg of the anesthetic cocktail described above. […] At the end of the procedure, Tobrex ophthalmic ointment (tobramycin 0.3%; Alcon, Fort Worth, Tex.) was applied topically. Five days after intracameral injection of India ink, a dark band at the limbus was noted due to the aggregation of carbon particles in the trabecular meshwork.38 After anesthesia, approximately 200 laser burns were delivered ab externo to the pigmented trabecular band at laser settings of 200 μm diameter, 200 mW power and 0.2 seconds duration. Three weeks after the first laser treatment, another trabecular laser photocoagulation was performed without further injection of ink.
Four-μm thick paraffin embedded sections along the vertical meridian of the optic nerve head were collected and a minimum of 6 retinal sections (8 μm apart) per eyeball was used for counting the number of TUNEL positive cells in the RGCL. Only full length and undamaged retinal sections without oblique orientation were used. The procedures described in the ApopTag Peroxidase In Situ Apoptosis Detection Kit (Intergen Co., Purchase, N.Y.) were followed and diaminobenzidine (Sigma, St. Louis, Mo.) was used as a color substrate. Counting was performed by two masked investigators with light microscopy, and averaged.

[4] = test system: retinal ganglion cells (RGCs); experiment: Density of DTMR-labeled RGCs in rat glaucoma model (Experiment 2); assay type: in vivo; conditions: retinas with IOP elevation, 5 weeks; quercetin = co-administered with GGA
Procedure: GGA was then given twice a week at the same dose until euthanasia. Sustained elevation of intraocular pressure (IOP) was maintained by performing trabecular laser photocoagulation three weeks after the first photocoagulation. […] IOP and body weight were measured once a week. […] Rats were anesthetized with intramuscular injections of 0.8 ml/kg of the anesthetic cocktail described above. A previously published procedure was modified to produce chronic moderately elevated IOP unilaterally, while the untreated contralateral eye served as the comparative control.40 Animals were injected intracamerally with 10 μl of 35% India ink (Becton Dickinson, Cockeysville, Md.) in 0.01 M PBS after removing a similar volume of aqueous. At the end of the procedure, Tobrex ophthalmic ointment (tobramycin 0.3%; Alcon, Fort Worth, Tex.) was applied topically. Five days after intracameral injection of India ink, a dark band at the limbus was noted due to the aggregation of carbon particles in the trabecular meshwork.38 After anesthesia, approximately 200 laser burns were delivered ab externo to the pigmented trabecular band at laser settings of 200 μm diameter, 200 mW power and 0.2 seconds duration. Three weeks after the first laser treatment, another trabecular laser photocoagulation was performed without further injection of ink. […] A cross section of the optic nerve was made with the needle knife through the opening of the optic nerve sheath, with care not to damage the adjacent blood supply. DTMR crystals were applied to the proximal cut surface of the optic nerve to label RGCs by fast retrograde axonal transport. After euthanasia and enucleation, the retinas were dissected and flattened with four radial cuts (superotemporal, inferotemporal, superonasal, and inferonasal). They were placed with vitreal side up on glass slides, dried in the dark at room temperature overnight and mounted. The retinas were examined with a fluorescence microscope (Axioplan; Carl Zeiss, Oberkochen, Germany) equipped with a filter that permits visualization of rhodamine fluorescence (excitation filter BP 546, barrier filter LP590; Carl Zeiss). The counting of RGCs was conducted by 2 examiners in a masked fashion. […] Each rectangular area measured 0.475 mm×0.362 mm and the total counted area corresponded to approximately 3.1% of each total retinal area. Data are expressed as number of RGCs per mm2.

[5] = test system: HSP72; experiment: Quantitative immunohistochemical analysis of HSP72 in the RGCL after 1 week of IOP elevation (Experiment 3); assay type: in vivo, rat; conditions: quercetin = co-administered with GGA
Procedure: TdT-mediated biotin-dUTP nick end labeling (TUNEL) and immunohistochemical analysis for HSP72 and HSC70 were performed.
Animals were deeply anesthetized with intramuscular injections of 0.8 ml/kg of a cocktail of 5 ml ketamine (100 mg/ml), 2.5 ml xylazine (20 mg/ml), 1.0 ml acepromazine (10 mg/ml), and 1.5 ml normal saline. Then they were transcardially perfused with 4% paraformaldehyde in 0.1 M phosphate buffer. The enucleated eyeballs were immersed in fixative for 1 hour, bisected and post-fixed overnight. The eyes were embedded in paraffin and sectioned at a four-μm thickness along the vertical meridian through the optic nerve head. After deparaffinization and hydration, a species-specific Vectastain ABC kit (Vector Laboratories, Inc., Burlingame, Calif.) was chosen to match the species of primary antibody and the manufacturer's procedures were followed. The tissue sections were incubated with blocking serum solution in PBS for 1 hour. This was followed by incubation with primary antibody at 4° C overnight. The antibodies were mouse monoclonal antibody against HSP72 (1:500; StressGen Biotechnologies Corp., Victoria, British Columbia, Canada), goat polyclonal antibody against HSP72 (1:1000; Santa Cruz Biotechnology, Inc., Santa Cruz, Calif.) or rat monoclonal antibody against HSC70 (1:200; StressGen). Antigen-antibody complexes were detected by an avidin-biotin-peroxidase technique (Vectastain ABC Kit; Vector Laboratories). Diaminobenzidine (DAB) was used to produce a brown color in the target tissue and the slides were permanently mounted. As a negative control, alternate retinal section was incubated with blocking solution by replacing the primary antibody or with anti-rabbit secondary antibody by replacing the original secondary antibody.
Immunohistochemical staining was analyzed quantitatively with a computer-assisted image processing unit (Image-Pro Plus software, Media Cybernetics, Silver Spring, Md.) and the “count-measure” function. Images of immuno-stained sections were captured with a digital camera (Cool snap, RS Photometric, Tucson, Ariz.) attached to the microscope (Axio plan, Carl Zeiss, Oberkochen, Germany) at 630× magnification under oil immersion. The system was calibrated according to the supplier's manual before the analysis. For each digital image, all individual cells in the RGCL were marked by a masked examiner and the optical density of each cell was measured. The relative intensities of cells in the RGCL were measured and averaged (±SEM) to yield a single value representing one retina.

SMILES | protection of retinal ganglion cells [1] | expression of HSP72 in RGCs (immunoblot) [2] | effect on number of TUNEL positive cells (in words) [3] | effect on density of DTMR-labeled RGCs (in words) [4] | HSP72 expression (immunoreactive intensity) in the RGCL ([5]; control (normal IOP) retinas vs vehicle-alone controls) | HSP72 expression (immunoreactive intensity) in the RGCL ([5]; retinas with IOP elevation, 1 week)
OCC1OC(O)CC(O)C1O [2DG, 2-deoxy-D-gluycose] | ineffective | – | – | – | – | –
O=c1c(O)c(-c2ccc(O)c(O)c2)oc2cc(O)cc(O)c12 [quercetin] | – | inhibited | reversed | abolished the protective effect | abolished; also recorded: diminished | significantly reduced; also recorded: abolished
